Test results taken from patent US7208506B2, “Heteroarylethenyl derivatives, their manufacture and use as pharmaceutical agents” (Hoffmann-La Roche Inc., priority 2005, dated 2007).
Where a name gives a salt, the structure may show the parent alone.

System: HCT 116 cells
Assay: CellTiter-Glo Luminescent Cell Viability Assay in HCT 116 cells
Format: cell-based
Settings: Homo sapiens, HCT-116, 120 h, HCT 116 human colon carcinoma cell viability, 120 h (5 days) incubation, 10 concentrations 30 μM to 0.0015 μM, triplicate
Description: CellTiter-Glo™ Assay in HCT 116 Cells
The CellTiter-Glo™ Luminescent Cell Viability Assay (Promega) is a homogeneous method of determining the number of viable cells in culture based on quantitation of the ATP present, which signals the presence of metabolically active cells.
HCT 116 cells (human colon carcinoma, ATCC-No. CCl1-247) were cultivated in RPMI 1640 medium with GlutaMAX™ I (Invitrogen, Cat-No. 61870-010), 2.5% Fetal Calf Serum (FCS, Sigma Cat-No. F4135 (FBS)); 100 Units/ml penicillin/100 μg/ml streptomycin (=Pen/Strep from Invitrogen Cat. No. 15140). For the assay the cells were seeded in 384 well plates, 1000 cells per well, in the same medium. The next day the test compounds were added in various concentrations ranging from 30 μM to 0.0015 μM (10 concentrations, 1:3 diluted). After 5 days the CellTiter-Glo™ assay was done according to the instructions of the manufacturer (CellTiter-Glo™ Luminescent Cell Viability Assay, from Promega). In brief: the cell-plate was equilibrated to room temperature for approximately 30 minutes and than the CellTiter-Glo™ reagent was added. The contents were carefully mixed for 15 minutes to induce cell lysis. After 45 minutes the luminescent signal was measured in Victor 2, (scanning multiwell spectrophotometer, Wallac).
Medium: RPMI 1640 with GlutaMAX™ I (Invitrogen, Cat-Nr. 61870), 5% FCS (Sigma Cat.-No. F4135), Pen/Strep (Invitrogen, Cat No. 15140).
HCT116 (ATCC-No. CCl-247): 1000 cells in 60 μl per well of 384 well plate (Greiner 781098, μClear-plate white)
After seeding incubate plates 24 h at 37° C., 5% CO2
2nd. Day: Induction (Treatment with Compounds, 10 Concentrations):
In order to achieve a final concentration of 30 μM as highest concentration 3,5 μl of 10 mM compound stock solution were added directly to 163 μl media. Then step e) of the dilution procedure described below, was followed.
In order to achieve the second highest to the lowest concentrations, a serial dilution with dilution steps of 1:3 was followed according to the procedure (a–e) as described here below: • a) for the second highest concentration add 10 μl of 10 mM stock solution of compound to 20 μl dimethylsulfoxide (DMSO) • b) dilute 8×1:3 (always 10 μl to 20 μl DMSO) in this DMSO dilution row (results in 9 wells with concentrations from 3333.3 μM to 0.51 μM) • c) dilute each concentration 1: 47.6 (3.5 μl compound dilution to 163 μl media) • e) add 10 μl of every concentration to 60 μl media in the cell plate resulting in final concentration of DMSO : 0.3% in every well and resulting in 10 final concentration of compounds ranging from 30 μM to 0.0015 μM. • Each compound is tested in triplicate. • Incubate 120 h (5 days) at 37° C., 5% CO2
Analysis: • Add 30 μl CellTiter-Glo™ Reagent per well, • shake 15 minutes at room temperature • incubate further 45 minutes at room temperature without shaking
Measurement: • Victor 2 scanning multiwell spectrophotometer (Wallac), Luminescence mode (0.5 sec/read, 477 nm) • Determine IC50 using a non-linear curve fit (XLfit software (ID Business Solution Ltd., Guilford, Surrey, UK))

Structure (SMILES) | IC50
O=C(NS(=O)(=O)/C=C/c1ccccn1)c1ccc(F)cc1Cl [Example 2-6, (E)-2-Pyridin-2-yl-ethenesulfonic acid 2-chloro-4-fluoro-benzoylamide; sodium salt] | 0.5 to 15 µM
O=C(NS(=O)(=O)/C=C/c1csc2ccccc12)c1ccc(F)cc1C(F)(F)F [Example 2-28, (E)-2-Benzo[b]thiophen-3-yl-ethenesulfonic acid 4-fluoro-2-trifluoromethyl-benzoylamide; sodium salt] | 0.5 to 15 µM
Cc1cc(Cl)ccc1C(=O)NS(=O)(=O)/C=C/c1ccsc1 [Example 3-2, (E)-2-Thiophen-3-yl-ethenesulfonic acid 4-chloro-2-methyl-benzoylamide; sodium salt] | 0.5 to 15 µM
O=C(NS(=O)(=O)/C=C/c1cncnc1)c1ccc(Cl)cc1Cl [Example 2-18, (E)-2-Pyrimidin-5-yl-ethenesulfonic acid 2,4-dichloro-benzoylamide; sodium salt] | 0.5 to 15 µM
Cc1cc(Cl)ccc1C(=O)NS(=O)(=O)/C=C/c1ccccn1 [Example 4-2, (E)-2-Pyridin-2-yl-ethenesulfonic acid 4-chloro-2-methyl-benzoylamide; sodium salt] | 0.5 to 15 µM
Cc1cc(Br)ccc1C(=O)NS(=O)(=O)/C=C/c1ccsc1 [Example 3-5, (E)-2-Thiophen-3-yl-ethenesulfonic acid 4-bromo-2-methyl-benzoylamide; sodium salt] | 0.5 to 15 µM
O=C(NS(=O)(=O)/C=C/c1cccnc1Cl)c1ccc(Cl)cc1Cl [Example 2-21, (E)-2-(2-Chloro-pyridin-3-yl)-ethenesulfonic acid 2,4-dichloro-benzoylamide; sodium salt] | 0.5 to 15 µM
Cc1cc(Cl)ccc1C(=O)NS(=O)(=O)/C=C/c1cccnc1 [Example 4-8, (E)-2-Pyridin-3-yl-ethenesulfonic acid 4-chloro-2-methyl-benzoylamide; sodium salt] | 0.5 to 15 µM
Cc1ccc(C(=O)NS(=O)(=O)/C=C/c2ccsc2)c(C)c1 [Example 3-14, (E)-2-Thiophen-3-yl-ethenesulfonic acid 2,4-dimethyl-benzoylamide; sodium salt] | 0.5 to 15 µM
Cc1cccc(/C=C/S(=O)(=O)NC(=O)c2ccc(F)cc2Br)n1 [Example 4-15, (E)-2-(6-Methyl-pyridin-2-yl)-ethenesulfonic acid 2-bromo-4-fluoro-benzoylamide; sodium salt] | 0.5 to 15 µM
COc1cc(Cl)ccc1C(=O)NS(=O)(=O)/C=C/c1cccs1 [Example 3-1, (E)-2-Thiophen-2-yl-ethenesulfonic acid 4-chloro-2-methoxy-benzoylamide; sodium salt] | 0.5 to 15 µM
Cc1ccc(/C=C/S(=O)(=O)NC(=O)c2ccc(Cl)cc2Cl)s1 [Example 1-8, (E)-2-(5-Methyl-thiophen-2-yl)-ethenesulfonic acid 2,4-dichloro-benzoylamide] | 0.5 to 15 µM
COc1ccc(/C=C/S(=O)(=O)NC(=O)c2ccc(F)cc2Cl)cn1 [Example 2-10, (E)-2-(6-Methoxy-pyridin-3-yl)-ethenesulfonic acid 2-chloro-4-fluoro-benzoylamide; sodium salt] | 0.5 to 15 µM
O=C(NS(=O)(=O)/C=C/c1ccsc1)c1ccc(Br)cc1Cl [Example 3-11, (E)-2-Thiophen-3-yl-ethenesulfonic acid 4-bromo-2-chloro-benzoylamide; sodium salt] | 0.5 to 15 µM
O=C(NS(=O)(=O)/C=C/c1ccccn1)c1ccc(F)cc1Br [Example 4-6, (E)-2-Pyridin-2-yl-ethenesulfonic acid 2-bromo-4-fluoro-benzoylamide; sodium salt] | 0.5 to 15 µM
O=C(NS(=O)(=O)/C=C/c1cccnc1)c1ccc(F)cc1C(F)(F)F [Example 2-9, (E)-2-Pyridin-3-yl-ethenesulfonic acid 4-fluoro-2-trifluoromethyl-benzoylamide; sodium salt] | 0.5 to 15 µM
